The text below walks through data of patent US11045441B2, “Use of retinoic acid and analogs thereof to treat central neural apneas” (Wisconsin Alumni Research Foundation, priority 2015, dated 2021).

Each structure is given as a SMILES string.

Holding throughout (type): in vivo
The test system of one test is phrenic nerve activity. The test can be described thus: Protocol 1: intrathecal retinoic acid injections, phrenic nerve recording in anesthetized rats. Particulars: three 10 μL intrathecal injections, 50 μM each, 60 min after final injection, vs vehicle control, FIGS. 1A, 1B.
In test [1] the test system is phrenic and hypoglossal nerve activity. Briefly: Protocol 2: central neural apnea model with concurrent hypoxia, rats pretreated with retinoic acid. Here is the method:
Respiratory-related activity was recorded from the left phrenic and hypoglossal nerves in urethane-anesthetized (1.7 g/kg), vagotomized, paralyzed and mechanically ventilated rats (see Strey et al., 2012 for details). Rats are slightly hyperventilated, so a small amount of inspired CO2 was delivered to achieve target, normal PCO2. A pre-study apneic threshold test was performed. The apneic threshold was determined by lowering arterial PCO2 until phrenic respiratory activity ceased. […] Following 15 min of stable phrenic and hypoglossal burst discharge, baseline phrenic and hypoglossal burst amplitudes and blood gases were measured. Rats were then subjected to one of the following protocols:
Protocol 2) Five (5) brief central neural apneas followed by a 25 sec ventilator apnea (nadir O2 saturation ˜70%) in rats pretreated with vehicle (“control”) or retinoic acid (see below for details). The results are depicted in FIGS. 2A, 2B, and 3.
Protocol 1 tests the hypothesis that retinoic acid is sufficient to elicit inactivity-induced respiratory motor facilitation. Protocol 2 tests the hypothesis that retinoic acid administration can circumvent hypoxia-induced constraints on inactivity-induced respiratory motor facilitation. Phrenic burst amplitude was recorded for up to 60 min following treatment, and an apneic threshold test was performed at the end of the protocol.
To model a central neural apnea in anesthetized rats, inflow of CO2 was ceased by stopcock valve to reduce arterial PCO2 below the apneic threshold. Following a 10 second period of no phrenic firing activity (signaling absent breaths) the ventilator was turned off for 25 seconds to model the hypoxia that would normally be experienced in a human. At the end of 25 seconds, the ventilator was turned back on and PaCO2 was restored. This experience was repeated five times, with five minutes separating each episode.

Test [2] concerns apnea and hypopnea events. Briefly: Chronic intermittent hypoxia (CIH) model, diaphragm EMG recording of apneic and hypoapneic events. The following applies: rats; intraperitoneal 500 mcg/kg daily during 7 day CIH plus day 8 dose; FIG. 5.
Text: Briefly, the experimental and control animals were placed in adjoining, identical chambers that were maintained at room temperature and were large enough to allow unimpeded movement. The fraction of inspired oxygen in each chamber was regulated by microprocessor-controlled miniature solenoids attached to each chamber by high-pressure tubing. For the CIH protocol, the chamber was flushed with 100% nitrogen for 30 sec followed by 30 sec of 100% O2 at a low flow rate. The time course of change in the fraction of inspired oxygen for the experimental chamber was determined using an oxygen analyzer (Sensormedics, Milan, Italy): a decline to a nadir of 6.5 to 7% oxygen, remaining at that level for 5 to 7 sec, and then gradually increasing to 21% over the next 30 sec during which oxygen flowed into the chamber. This cycle was repeated each minute over 8 daytime hours (8 to 9 am to 4 to 5 pm) for 7 days. Control rats were exposed to the same sequence of events as experimental rats, with the exception that room air was used instead of nitrogen and oxygen. […] The experimental animals were administered intra peritoneal trans-retinoic acid (500 mcg/kg) daily throughout the 7 day CIH exposure with an additional dose given the morning of diaphragm electromyography (EMG) recordings (day 8; total of 8 injections) […] and hypoapneic events were recorded via conventional diaphragm EMG measurements.

Experimental for phrenic nerve activity: Respiratory-related activity was recorded from the left phrenic and hypoglossal nerves in urethane-anesthetized (1.7 g/kg), vagotomized, paralyzed and mechanically ventilated rats (see Strey et al., 2012 for details). Rats are slightly hyperventilated, so a small amount of inspired CO2 was delivered to achieve target, normal PCO2. A pre-study apneic threshold test was performed. The apneic threshold was determined by lowering arterial PCO2 until phrenic respiratory activity ceased. […] Following 15 min of stable phrenic and hypoglossal burst discharge, baseline phrenic and hypoglossal burst amplitudes and blood gases were measured. Rats were then subjected to one of the following protocols: Protocol 1) Three (3) 10 μL intrathecal injections (50 μM each) of retinoic acid or three (3) 10 μL of vehicle (aCSF in 10% DMSO). […] Protocol 1 tests the hypothesis that retinoic acid is sufficient to elicit inactivity-induced respiratory motor facilitation. […] Phrenic burst amplitude was recorded for up to 60 min following treatment, and an apneic threshold test was performed at the end of the protocol.

For `CC1=C(/C=C/C(C)=C/C=C/C(C)=C/C(=O)O)C(C)(C)CCC1` [retinoic acid, all-trans retinoic acid], the “phrenic nerve activity (phrenic motor output) as a percentage of baseline activity” value was “persistently increases phrenic motor output” in the test with phrenic nerve activity and “significantly higher than control group” in the test with phrenic nerve activity (listed as trans-retinoic acid). Moreover, the CO2 apneic threshold result in test [1] (anesthetized rats, given before central neural apnea, 60 min post injection, vs control, FIG. 3) is listed as “reduced the CO2 apneic threshold relative to a control groups”. In addition, the phrenic burst amplitude result in test [1] (anesthetized rats, intrathecal 10 μL, 50 μM before central neural apneas with hypoxia, 60 min after, FIG. 2A) is given as “significantly higher than pre-stimulation levels”. The hypoglossal burst amplitude result in test [1] (anesthetized rats, intrathecal 10 μL, 50 μM before central neural apneas with hypoxia, 60 min after, FIG. 2B) is “significantly higher than pre-stimulation levels”. For the same compound, the “enhanced phrenic motor output following inactivity with concurrent hypoxia” value in test [1] (pretreatment, intermittent inactivity with concurrent hypoxia, FIG. 4C) is “rescues then enhanced phrenic motor output”. Besides, in test [2], the “number of apnea and hypopnea events (diaphragm EMG)” value was “reduces the number of apnea and hypopnea events”.
